From patent publication US9000022B2 (Exelixis Patent Company LLC, priority 2005, dated 2015)

Test system: LXRα and/or LXRβ
Assay: Co-transfection assay (LXRE luciferase reporter, CV-1 cells)
Type: cell-based, human
Settings: tested as described in Example 33; IC50 or EC50 for LXRα and/or LXRβ, isoform not specified; read-out: activity (IC50 or EC50 for LXR)
Outline: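 CV-1 cells transiently co-transfected with full-length human LXRα or LXRβ plus RXRα, an LXRE×1-Tk-luciferase reporter and a β-galactosidase control. Compounds incubated 20 h at 37 °C (≤1% DMSO; screen at 10 μM final); luciferase read after lysis. EC50/IC50 from 8-point half-log curves (4 wells per point, ≥3 experiments); efficacy relative to a reference agonist high control and DMSO.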

Row | IC50 or EC50 (potency, activation or inhibition) [nM] | Structure (SMILES)
1 | 1000 to 10000 | CC(C)(O)c1cn(-c2ccc(-c3ccc(CO)c(S(C)(=O)=O)c3)cc2F)c(-c2c(F)cccc2Cl)n1 [Example 127, 2-(2-(2-chloro-6-fluorophenyl)-1-(3-fluoro-4′-(hydroxymethyl)-3′-(methylsulfonyl)biphenyl-4-yl)-1H-imidazol-4-yl)propan-2-ol]
2 | < 1000 | Cc1cccc(Cl)c1-c1nc(C(C)(C)O)cn1-c1ccc(-c2cccc(S(C)(=O)=O)c2)cc1F [Example 128, 2-(2-(2-chloro-6-methylphenyl)-1-(3-fluoro-3′-(methylsulfonyl)biphenyl-4-yl)-1H-imidazol-4-yl)propan-2-ol]
3 | < 1000 | CCS(=O)(=O)c1cccc(-c2ccc(-n3cc(C(C)(C)O)nc3-c3c(C)cccc3Cl)c(F)c2)c1 [Example 129]
4 | 1000 to 10000 | CC(C)(O)c1cn(-c2ccc(-c3cccc(S(C)(=O)=O)c3)cc2F)c(-c2c(F)cccc2F)n1 [Example 130, 2-(2-(2,6-difluorophenyl)-1-(3-fluoro-3′-(methylsulfonyl)biphenyl-4-yl)-1H-imidazol-4-yl)propan-2-ol]
5 | 1000 to 10000 | CCS(=O)(=O)c1cccc(-c2ccc(-n3cc(C(C)(C)O)nc3-c3c(F)cccc3F)c(F)c2)c1 [Example 131, 2-(2-(2,6-difluorophenyl)-1-(3′-(ethylsulfonyl)-3-fluorobiphenyl-4-yl)-1H-imidazol-4-yl)propan-2-ol]
6 | < 1000 | Cc1cccc(Cl)c1-c1nc(C(C)(C)O)cn1-c1ccc(-c2ccc(CO)c(S(C)(=O)=O)c2)cc1F [Example 133, 2-(2-(2-chloro-6-methylphenyl)-1-(3-fluoro-4′-(hydroxymethyl)-3′-(methylsulfonyl)biphenyl-4-yl)-1H-imidazol-4-yl)propan-2-ol]
7 | < 1000 | CC(C)(O)c1cn(-c2ccc(-c3cccc(S(C)(=O)=O)c3)cc2F)c(-c2c(F)cccc2Cl)n1 [Example 134, 2-(2-(2-chloro-6-fluorophenyl)-1-(3-fluoro-3′-(methylsulfonyl)biphenyl-4-yl)-1H-imidazol-4-yl)propan-2-ol]
8 | < 1000 | CC(C)(O)c1cn(-c2ccc(-c3cccc(S(C)(=O)=O)c3)cc2Cl)c(-c2ccccc2C(F)(F)F)n1 [Example 135, 2-(1-(3-chloro-3′-(methyl-sulfonyl)biphenyl-4-yl)-2-(2-(trifluoromethyl)phenyl)-1H-imidazol-4-yl)propan-2-ol]
9 | < 1000 | CCS(=O)(=O)c1cccc(-c2ccc(-n3cc(C(C)(C)O)nc3-c3ccccc3C(F)(F)F)c(Cl)c2)c1 [Example 136, 2-(1-(3-chloro-3′-(ethyl-sulfonyl)biphenyl-4-yl)-2-(2-(trifluoromethyl)phenyl)-1H-imidazol-4-yl)propan-2-ol]
10 | < 1000 | CCS(=O)(=O)c1cccc(-c2ccc(-n3cc(C(C)(C)O)nc3-c3ccccc3Cl)c(Cl)c2)c1 [Example 137, 2-(1-(3-chloro-3′-(ethyl-sulfonyl)biphenyl-4-yl)-2-(2-chlorophenyl)-1H-imidazol-4-yl)propan-2-ol]
11 | < 1000 | CC(C)(O)c1cn(-c2ccc(-c3ccc(CO)c(S(C)(=O)=O)c3)cc2Cl)c(-c2ccccc2Cl)n1 [Example 138, 2-(1-(3-chloro-4′-(hydroxymethyl)-3′-(methylsulfonyl)biphenyl-4-yl)-2-(2-chlorophenyl)-1H-imidazol-4-yl)propan-2-ol]
12 | < 1000 | CC(C)(O)c1cn(-c2ccc(-c3ccc(CO)c(S(C)(=O)=O)c3)cc2Cl)c(-c2ccccc2C(F)(F)F)n1 [Example 139, 2-(1-(3-chloro-4′-(hydroxymethyl)-3′-(methylsulfonyl)biphenyl-4-yl)-2-(2-(trifluoromethyl)phenyl)-1H-imidazol-4-yl)propan-2-ol]

The remaining lines, values behind:

Row | Structure (SMILES) | IC50 or EC50 (potency, activation or inhibition) [nM]
13 | CC(C)(O)c1cn(-c2ccc(-c3cccc(S(C)(=O)=O)c3)cc2F)c(-c2ccccc2C(F)(F)F)n1 [Example 109, 2-(1-(3-fluoro-3′-(methyl-sulfonyl)biphenyl-4-yl)-2-(2-(trifluoromethyl)phenyl)-1H-imidazol-4-yl)propan-2-ol] | < 1000
14 | CCS(=O)(=O)c1cccc(-c2ccc(-n3cc(C(C)(C)O)nc3-c3ccccc3C(F)(F)F)c(F)c2)c1 [Example 110, 2-(1-(3′-(ethylsulfonyl)-3-fluoro-biphenyl-4-yl)-2-(2-(trifluoromethyl)phenyl)-1H-imidazol-4-yl)propan-2-ol] | < 1000
15 | CC(C)(O)c1cn(-c2ccc(-c3cccc(S(C)(=O)=O)c3)c(F)c2)c(-c2ccccc2C(F)(F)F)n1 [Example 111, 2-(1-(2-fluoro-3′-(methyl-sulfonyl)biphenyl-4-yl)-2-(2-(trifluoromethyl)phenyl)-1H-imidazol-4-yl)propan-2-ol] | < 1000
16 | CCS(=O)(=O)c1cccc(-c2ccc(-n3cc(C(C)(C)O)nc3-c3ccccc3C(F)(F)F)cc2F)c1 [Example 112, 2-(1-(3′-(ethylsulfonyl)-2-fluoro-biphenyl-4-yl)-2-(2-(trifluoro-methyl)phenyl)-1H-imidazol-4-yl)propan-2-ol] | < 1000
17 | CC(C)(O)c1cn(-c2ccc(-c3cccc(S(C)(=O)=O)c3)cc2F)c(-c2cccc(Cl)c2Cl)n1 [Example 113, 2-(2-(2,3-dichlorophenyl)-1-(3-fluoro-3′-(methylsulfonyl)biphenyl-4-yl)-1H-imidazol-4-yl)propan-2-ol] | < 1000
18 | CCS(=O)(=O)c1cccc(-c2ccc(-n3cc(C(C)(C)O)nc3-c3cccc(Cl)c3Cl)c(F)c2)c1 [Example 114, 2-(2-(2,3-dichlorophenyl)-1-(3′-(ethylsulfonyl)-3-fluorobiphenyl-4-yl)-1H-imidazol-4-yl)propan-2-ol] | < 1000
19 | CC(C)(O)c1cn(-c2ccc(-c3cccc(S(C)(=O)=O)c3)cc2F)c(-c2c(Cl)cccc2Cl)n1 [Example 115, 2-(2-(2,6-dichlorophenyl)-1-(3-fluoro-3′-(methylsulfonyl)biphenyl-4-yl)-1H-imidazol-4-yl)propan-2-ol] | < 1000
20 | CCS(=O)(=O)c1cccc(-c2ccc(-n3cc(C(C)(C)O)nc3-c3c(Cl)cccc3Cl)c(F)c2)c1 [Example 116, 2-(2-(2,6-dichlorophenyl)-1-(3′-(ethylsulfonyl)-3-fluorobiphenyl-4-yl)-1H-imidazol-4-yl)propan-2-ol] | < 1000
21 | CC(C)(O)c1cn(-c2ccc(-c3ccc(CO)c(S(C)(=O)=O)c3)cc2F)c(-c2cccc(Cl)c2Cl)n1 [Example 117, 2-(2-(2,3-dichlorophenyl)-1-(3-fluoro-4′-(hydroxymethyl)-3′-(methyl-sulfonyl)biphenyl-4-yl)-1H-imidazol-4-yl)propan-2-ol] | < 1000
22 | Cc1c(Cl)cccc1-c1nc(C(C)(C)O)cn1-c1ccc(-c2cccc(S(C)(=O)=O)c2)cc1F [Example 118, 2-(2-(3-chloro-2-methylphenyl)-1-(3-fluoro-3′-(methylsulfonyl)biphenyl-4-yl)-1H-imidazol-4-yl)propan-2-ol] | < 1000
23 | CCS(=O)(=O)c1cccc(-c2ccc(-n3cc(C(C)(C)O)nc3-c3cccc(Cl)c3C)c(F)c2)c1 [Example 119, 2-(2-(3-chloro-2-methylphenyl)-1-(3′-(ethylsulfonyl)-3-fluorobiphenyl-4-yl)-1H-imidazol-4-yl)propan-2-ol] | < 1000
24 | Cc1c(Cl)cccc1-c1nc(C(C)(C)O)cn1-c1ccc(-c2ccc(CO)c(S(C)(=O)=O)c2)cc1F [Example 120, 2-(2-(3-chloro-2-methylphenyl)-1-(3-fluoro-4′-(hydroxymethyl)-3′-(methylsulfonyl)biphenyl-4-yl)-1H-imidazol-4-yl)propan-2-ol] | < 1000
25 | CC(C)(O)c1cn(-c2ccc(-c3ccc(CO)c(S(C)(=O)=O)c3)cc2F)c(-c2ccccc2C(F)(F)F)n1 [Example 121] | < 1000
26 | CC(C)(O)c1cn(-c2ccc(-c3ccc(CO)c(S(C)(=O)=O)c3)cc2F)c(-c2c(Cl)cccc2Cl)n1 [Example 122, 2-(2-(2,6-dichlorophenyl)-1-(3-fluoro-4′-(hydroxymethyl)-3′-(methylsulfonyl)biphenyl-4-yl)-1H-imidazol-4-yl)propan-2-ol] | < 1000
27 | CC(C)(O)c1cn(-c2ccc(-c3cccc(S(C)(=O)=O)c3)cc2F)c(-c2cccc(F)c2Cl)n1 [Example 123, 2-(2-(2-chloro-3-fluorophenyl)-1-(3-fluoro-3′-(methylsulfonyl)biphenyl-4-yl)-1H-imidazol-4-yl)propan-2-ol] | < 1000
28 | CCS(=O)(=O)c1cccc(-c2ccc(-n3cc(C(C)(C)O)nc3-c3cccc(F)c3Cl)c(F)c2)c1 [Example 124, 2-(2-(2-chloro-3-fluorophenyl)-1-(3′-(ethylsulfonyl)-3-fluorobiphenyl-4-yl)-1H-imidazol-4-yl)propan-2-ol] | < 1000
29 | CC(C)(O)c1cn(-c2ccc(-c3ccc(CO)c(S(C)(=O)=O)c3)cc2F)c(-c2cccc(F)c2Cl)n1 [Example 125, 2-(2-(2-chloro-3-fluorophenyl)-1-(3-fluoro-4′-(hydroxymethyl)-3′-(methylsulfonyl)biphenyl-4-yl)-1H-imidazol-4-yl)propan-2-ol] | < 1000
30 | CCS(=O)(=O)c1cccc(-c2ccc(-n3cc(C(C)(C)O)nc3-c3c(F)cccc3Cl)c(F)c2)c1 [Example 126, 2-(2-(2-chloro-6-fluorophenyl)-1-(3′-(ethylsulfonyl)-3-fluorobiphenyl-4-yl)-1H-imidazol-4-yl)propan-2-ol] | < 1000
